In patent US20200276165A1, “OVOTIOLS FOR THE TREATMENT OF CHRONIC LOW-GRADE SYSTEMIC INFLAMMATION (CLGSI) AND RELATED DISEASES” (UNIVERSITA' DEGLI STUDI G. D'ANNUNZIO CHIETI - PESCARA, priority 2017, published 2020):
Each block holds one molecule with its values, some of them ahead of it.

Experiments:
[1] = tested on: cGMP levels in C-HUVECs; assay: Cyclic guanosine mono phosphate assay (cGMP), EIA; format: cell-based, human
Experimental: Cyclic guanosine mono phosphate assay (cGMP): intracellular cGMP levels were evaluated by using a commercially available Enzyme Immunoassay (EIA) kit (GE Healthcare, Little Chalfont, Buckinghamshire, UK).

[2] = tested on: peroxynitrite in C-HUVECs; assay: Peroxynitrite levels by flow cytometry, HKGreen-4A probe; format: cell-based, human; settings: C-HUVEC
From the text: (§1) Cell endothelial cultures and experimental protocols: umbilical cords were obtained from randomly selected healthy Caucasian (Control, C) and with Gestational Diabetes (GD) mothers delivering at the Hospital of Chieti and Pescara. All procedures were in agreement with the ethical standards of the Institutional Committee on Human Experimentation (Reference Number: 1879/09COET) and with the Declaration of Helsinki Principles. After approval of the protocol by the Institutional Review Board, signed informed consent was obtained from each participating subject. Primary C- and GD-HUVECs were obtained and used between the 3rd and 5th passages in vitro. To evaluate the potential cytotoxicity of ovothiol, HUVECs were stimulated for 24 h with different doses (10-100 μM) of ovothiol A. The best doses of ovothiol A were used to evaluate their effects on the cells treated with TNF (1 ng/ml, Sigma Aldrich) which activated the inflammatory response. Briefly, HUVECs were grown to sub-confluence in complete culture medium DMEM/M199 (Mascia Brunelli, Italia). The cells were pre-incubated with ovothiol A (10 and 50 μM) for 24 hours or with medium alone as basal condition. Subsequently the cells were stimulated with TNF for 16 hours.
(§2) Flow cytometry: for flow cytofluorimetry analysis, C- and GD-HUVECs were stimulated as described in the experimental protocols. Non-permeabilized cells were detached by tetra-acetic ethylene-diamine acid solution (EDTA) 5 mM, washed and resuspended in bovine serum albumin (BSA) 0.5%. Cells harvested by centrifugation at 800 rpm for 15 min were incubated with anti-VCAM-1 PE-conjugate (1:100, phycoerythrin; Biolegend, San Diego, Calif., USA) and anti-ICAM-1 FITC-conjugate (1:100, fluorescein isothiocyanate; Biolegend) antibodies, both for 30 min at 4° C. The intracellular levels of peroxynitrite (ONOO—) were detected in C- and GD-HUVECs by using the HKGreen-4A probe (10 μM, 30 min at 37° C.) synthesized and provided by the laboratory of Prof. Dan Yang's. Reactive Oxygen Species (ROS) levels were evaluated with the fluorogenic reagent dichlorofluorescein diacetate (DCF-DA, Sigma-Aldrich) (20 μM, 45 min at 37° C.). All samples were analyzed using a FACS Calibur or FACS Canto II (BD Bioscences). The levels of membrane proteins (VCAM-1 and ICAM-1), fluorescence detection of ONOO— and ROS were evaluated by cytometric analysis of over 10.000 events for each sample. All data were analyzed using FACS Diva (BD Bioscences) and FlowJo v.8.8.6 software (TreeStar, Ashland, Oreg.) and expressed as percentage (%) of positive cells or MFI (Mean Fluorescence Intensity) Ratio. The MFI Ratio was calculated by dividing the MFI of positive events by the MFI of negative events (MFI of secondary antibody).

[3] = tested on: peroxynitrite in GD-HUVECs; assay: as above; format: cell-based, human; settings: GD-HUVEC
From the text: as §1, §2

[4] = tested on: GD-HUVECs; assay: MTT assay, cell viability; format: cell-based, human; settings: GD-HUVEC
From the text: as §1
(§3) MTT assay: ovothiol effect on the viability of C- and GD-HUVECs was evaluated by the 3-(4,5 dimethylthiazolyl-2)-2,5-diphenyltetrazolium bromide (MTT, Sigma-Aldrich) assay. 1×10^5 cells were plated in 96-well plates, grown to sub-confluence with the medium alone (as control) or stimulated for 24 h with growing doses of ovothiol A (10-100 μM), in the presence or absence of TNFα stimulation (1 ng/ml). A solution of MTT in phosphate buffer saline (PBS) was added to each well to a final concentration of 5 mg/ml. After 3 h incubation at 37° C., the cellular viability was evaluated before addition of 0.2 ml dimethylsulfoxide (DMSO, Sigma-Aldrich) for crystal solubilization in the vital cells. The absorbance at 540 nm was read using a micro-plate reader (SpectraMAX 190, Molecular Devices Inc., Sunnyvale, Calif., USA) and results were expressed as the absorbance at 540 nm (ABS 540 nm).

[5] = tested on: C-HUVECs; assay: MTT assay, cell viability; format: cell-based, human; settings: C-HUVEC
From the text: as §1, §3

[6] = tested on: intracellular GSH in GD-HUVECs; assay: Determination of intracellular glutathione levels (GSH); format: cell-based, human; settings: GD-HUVEC, after 10 minutes of incubation of ovothiol A
Experimental: Analysis of Ovothiol A levels in cell cultures: HUVEC cells (1,2×10^6 cellule) were cultured in flasks (25 cm^2) in the absence and in the presence of 50 μM ovothiol A and collected after incubation at different time intervals. The culture media were recovered by centrifugation and frozen for ovothiol A quantitation by HPLC analysis. The cellular pellets were resuspended in PBS pH 7.5, sonicated three times for 15 sec and 30% amplitude. The samples were then centrifuged at 13.000 rpm over 15 min to remove cellular debris, ultrafiltered by Microcon 3 to remove all molecules with MW>3 kDa and frozen for further analysis by HPLC. HPLC analyses were performed in duplicate on an LC10AD instrument equipped with binary pumps and a Shimadzu SPD-10AVP detector set at 254 nm and 280 nm. […]
Determination of intracellular glutathione levels (GSH): total GSH was determined by using the Glutathione Assay Kit (Sigma). […] The supernatant was used for the determination of glutathione by performing a kinetic assay in which catalytic amounts (nmoles) of GSH caused a continuous reduction of 5,5-dithiobis (2-nitrobenzoic acid) (DTNB) to 5-thio-2-nitrobenzoic (TNB), measured at 405 nm by a Thermo Scientific™ Multiskan™ FC Microplate Photometer.

[7] = Ovothiol A level in medium without the cells (HPLC); format: in vitro ADME; settings: Control: medium without the cells, ovothiol A 50 μM
Experimental: (§4) Analysis of Ovothiol A levels in cell cultures: HUVEC cells (1,2×10^6 cellule) were cultured in flasks (25 cm^2) in the absence and in the presence of 50 μM ovothiol A and collected after incubation at different time intervals. The culture media were recovered by centrifugation and frozen for ovothiol A quantitation by HPLC analysis. The cellular pellets were resuspended in PBS pH 7.5, sonicated three times for 15 sec and 30% amplitude. The samples were then centrifuged at 13.000 rpm over 15 min to remove cellular debris, ultrafiltered by Microcon 3 to remove all molecules with MW>3 kDa and frozen for further analysis by HPLC. HPLC analyses were performed in duplicate on an LC10AD instrument equipped with binary pumps and a Shimadzu SPD-10AVP detector set at 254 nm and 280 nm. A Phenomenex Synergi Sphereclone octadecylsilane (25 cm×0.46 cm, 4 μm particle size) column was used with 1% formic acid taken to pH 4.5 with ammonia, as the eluant, at a 0.7 mL/min flow rate.

[8] = tested on: VCAM-1 on C-HUVEC; assay: Flow cytometry, membrane exposure of VCAM-1; format: cell-based, human; settings: 50 μM ovothiol A, TNFα
From the text: (§5) Cell endothelial cultures and experimental protocols: umbilical cords were obtained from randomly selected healthy Caucasian (Control, C) and with Gestational Diabetes (GD) mothers delivering at the Hospital of Chieti and Pescara. All procedures were in agreement with the ethical standards of the Institutional Committee on Human Experimentation (Reference Number: 1879/09COET) and with the Declaration of Helsinki Principles. After approval of the protocol by the Institutional Review Board, signed informed consent was obtained from each participating subject. Primary C- and GD-HUVECs were obtained and used between the 3rd and 5th passages in vitro. […]
(§6) Flow cytometry: for flow cytofluorimetry analysis, C- and GD-HUVECs were stimulated as described in the experimental protocols. […] The intracellular levels of peroxynitrite (ONOO—) were detected in C- and GD-HUVECs by using the HKGreen-4A probe (10 μM, 30 min at 37° C.) synthesized and provided by the laboratory of Prof. […] Reactive Oxygen Species (ROS) levels were evaluated with the fluorogenic reagent dichlorofluorescein diacetate (DCF-DA, Sigma-Aldrich) (20 μM, 45 min at 37° C.). All samples were analyzed using a FACS Calibur or FACS Canto II (BD Bioscences). The levels of membrane proteins (VCAM-1 and ICAM-1), fluorescence detection of ONOO— and ROS were evaluated by cytometric analysis of over 10.000 events for each sample. […]

[9] = tested on: VCAM-1 on GD-HUVEC; assay: Flow cytometry, membrane exposure of VCAM-1; format: cell-based, human; settings: 50 μM ovothiol A, TNFα
From the text: as §5, §6

[10] = tested on: Hep-G2 cell line; settings: epatocarcinoma cell lines; cited from earlier work
[11] = tested on: GD-HUVECs; assay: Analysis of ovothiol A levels in cell cultures (HPLC); format: in vitro ADME, human
Experimental: as §4

[12] = tested on: C-HUVECs; assay: as above; format: in vitro ADME, human
Experimental: as §4

[13] = tested on: U937 monocytes adhesion to C-HUVECs; assay: Adhesion of monocytes to endothelium assay; format: cell-based, human; settings: C-HUVEC, 24 hours pre-treatment with 10 and 50 μM, TNFα 1 ng/ml 16 hours
From the text: as §5
(§7) Adhesion of monocytes to endothelium assay: adhesion of U937 monocytes to C- and GD-HUVECs was evaluated in the basal state, after 16 hours of TNFα treatment (1 ng/ml) and in presence of ovothiol A (10-50 μM). The cells were grown to confluence in six-well culture plates and U937 adhesion was evaluated as previously described (Di Tomo, P., Lanuti, P., Di Pietro, N., Baldassarre, M. P. A., Marchisio, M., Pandolfi, A., Consoli, A., Formoso, G. (2017) Liraglutide mitigates TNF-α induced pro-atherogenic changes and Microvesicles release in HUVEC from diabetic women. Diabetes Metab. Res. Rev. doi: 10.1002/dmrr.2925).

[14] = tested on: U937 monocytes adhesion to GD-HUVECs; assay: Adhesion of monocytes to endothelium assay; format: cell-based, human; settings: GD-HUVEC, 24 hours pre-treatment with 10 and 50 μM, TNFα 1 ng/ml 16 hours
From the text: as §5, §7

[15] = tested on: ICAM-1 on C-HUVEC; assay: Flow cytometry, membrane exposure of ICAM-1; format: cell-based, human; settings: 50 μM ovothiol A, TNFα
From the text: as §5, §6

[16] = tested on: ICAM-1 on GD-HUVEC; assay: Flow cytometry, membrane exposure of ICAM-1; format: cell-based, human; settings: 50 μM ovothiol A, TNFα
From the text: as §5, §6

[17] = tested on: ROS in C-HUVECs; assay: ROS levels by flow cytometry (DCF-DA); format: cell-based, human; settings: C-HUVEC, in the absence of TNFα
From the text: as §5, §6

[18] = tested on: ROS in GD-HUVECs; assay: ROS levels by flow cytometry (DCF-DA); format: cell-based, human; settings: GD-HUVEC, under inflammatory conditions (TNFα)
From the text: as §5, §6

[19] = Ionomycin 50 nM in combination with PMA 0.3 μM, positive control
[20] = 50 μM, in the presence or absence of TNFα
[21] = pre-treatment with 50 μM, after exposure to TNFα
[22] = GD-HUVECs incubated 30 minutes with ovothiol A 50 μM, HPLC
[23] = C-HUVECs incubated 30 minutes with ovothiol A 50 μM, HPLC

Molecule: C[C@H](CCC(=O)O)C[C@H](C)C[C@H](C)C(=O)/C=C(\O)[C@H](C)C[C@H](C)C/C=C/[C@@H](C)[C@@H](O)[C@@H](C)[C@@H](O)C[C@@H]1CC[C@@](C)([C@H]2CC[C@@](C)([C@@H](C)O)O2)O1 [Ionomycin, reference compound]
cGMP levels ([1]; C-HUVEC, positive control): induced the increase of cGMP levels | peroxynitrite formation [2, 19]: induced peroxynitrite formation | peroxynitrite formation [3, 19]: induced peroxynitrite formation

Molecule: COC(=O)[C@@H](N)CCCNC(=N)N[N+](=O)[O-] [L-NAME, reference compound]
cGMP levels, addition of L-NAME to Ionomycin ([1]; C-HUVEC, Ionomycin-stimulated): restored the initial levels

ovothiol A in medium [7]: 45 µmol/L | kinetic decay of the compound in the medium ([11]; GD-HUVEC medium, 50 μM, compared to the medium without the cells): very rapid | ovothiol A in cells [11, 22]: 1.53 pmol/cell | ovothiol A in medium [11, 22]: 10.08 ± 1.68 µmol/L | kinetic decay of the compound in the medium ([12]; C-HUVEC medium, 50 μM, compared to the medium without the cells): very rapid | ovothiol A in cells [12, 23]: 1.18 pmol/cell | ovothiol A in medium [12, 23]: 14.86 ± 1.24 µmol/L
Molecule: ovothiol A
cell viability parameters (MTT) [4, 20]: no significant changes | cytotoxicity (viability by MTT assay) ([4]; 100 μM ovothiol A, 24 h): cytotoxic | cell viability parameters (MTT) [5, 20]: no significant changes | cytotoxicity (viability by MTT assay) ([5]; 100 μM ovothiol A, 24 h): cytotoxic | cGMP levels, effect of ovothiol A with TNFα treatment ([1]; C-HUVEC, TNFα+Ovot): abolished | cGMP levels ([1]; C-HUVEC, ovothiol A treatment): significantly increased | cGMP levels, effect of ovothiol A with L-NAME pre-incubation ([1]; pre-incubation with L-NAME 1 mM for 45 minutes): not affected | levels of peroxynitrite [2, 21]: significantly reduced | levels of peroxynitrite [3, 21]: significantly reduced | intracellular GSH levels [6]: increased significantly | exposure of VCAM-1 on the membrane [8]: significantly reduced | exposure of VCAM-1 on the membrane [9]: significantly reduced | autophagy [10]: induces autophagy | reduction of reactive oxygen species [10]: without inducing a reduction of reactive oxygen species | U937 cell adhesion (number of adherent cells) [13]: only on GD-HUVECs | U937 cell adhesion (number of adherent cells) [14]: significant reduction | effect on ICAM-1 levels (membrane exposure) [15]: did not reach the statistical significance | effect on ICAM-1 levels (membrane exposure) [16]: did not reach the statistical significance | ROS levels [17]: reduced ROS levels | ROS levels [18]: reduced ROS levels
